The source of these data is patent publication US20240009143A1, “EXTRACTION OF SHIKONIN FROM ARNEBIA DECUMBENS ROOTS AND USE OF SHIKONIN DERIVATIVES FOR TREATING ULCERS” (KUWAIT UNIVERSITY, priority 2022, published 2024).

The subject of the experiment is Heliobacter pylori. Kind of experiment: In vitro testing on H. pylori. Format: cell-based. The settings on record: dose of 0.06 mg. How it is done:
The biological activity of the 4 shikonin derivatives were tested against 2 microorganisms Heliobacter pylori (H. pylori or HP) and Candida albicans (C. albicans).

Regarding `CC(C)=CC[C@@H](O)C1=CC(=O)c2c(O)ccc(O)c2C1=O` [compound E, shikonin], the “inhibition associated with H. pylori” value is 41.6%.
With `CC(=O)O[C@H](CC=C(C)C)C1=CC(=O)c2c(O)ccc(O)c2C1=O` [compound D, acetylshikonin] the figure was 41.6%.
